Test results from PMC7822874, “Chemoprotective antimalarials identified through quantitative high-throughput screening of Plasmodium blood and liver stage parasites” (Scientific Reports, 2021).
Peptide text beside a SMILES is read from it. * marks the point of attachment. Boc = CC(C)(C)OC(=O)*; OBn = c1ccc(CO*)cc1

System: Plasmodium falciparum Dd2 asexual blood stage parasites
Experiment: microbe, parasite or virus in culture
Set-up: species or system Plasmodium falciparum Dd2 in human erythrocytes; single determination (one 11-point concentration-response curve)
Conditions: Plasmodium falciparum, DD2, Erythrocyte, 72 h; read-out: AC50

COc1ccc(CNCc2ccc(C)s2)cc1OCC(O)CN1CCCCC1 (stereo not drawn) [NCGC00428936-01]
AC50: 9.44 µM

COc1ccc(CC(=O)NCc2ccccn2)cc1OC [MLS000039135-01]
AC50: 7.5 µM

CC(C)n1cc(CN2CCCC23CCN(c2ccc(C(F)(F)F)cn2)CC3)cn1 [NCGC00442913-01]
AC50: 9.44 µM

CN1CCN(c2nc(Nc3ccc(O)cc3)nc3ccccc23)CC1 [MLS000716977-01]
AC50: 4.22 µM

Cc1c(Cl)cccc1Nc1nn2c(=O)c3ccc(C(=O)N(C)Cc4ccccc4)cc3nc2s1 [NCGC00125571-01]
AC50: 16.8 µM

COC(=O)[C@@H]1Cc2ncn(Cc3ccc(OC)cc3)c2CN1[S+](=O)([O-])Cc1ccccc1 [NCGC00401681-01]
AC50: 15 µM

CCOc1ccc(CN(CCc2ccc3c(c2)OCO3)Cc2cc(OC)ccc2O)cc1 [NCGC00101752-01]
AC50: 0.668 µM

COc1ccc(OC)c(NC(=O)c2cc(-c3cc(Cl)ccc3O)n[nH]2)c1 [MLS000083936-01]
AC50: 4.73 µM

Cc1ccc(NC(=O)Cn2c(-c3ccccc3)nc(C)c(CCO)c2=O)cc1Cl [NCGC00470911-01]
AC50: 10.6 µM

CCOC(=O)c1c([S+](=O)([O-])N2CCCC(C(=O)N3CCN(c4cc(C)ccc4C)CC3)C2)c(C)n(C)c1C (stereo not drawn) [NCGC00138145-01]
AC50: 1.5 µM

Cc1cc(N2CCC(C)CC2)nc(-n2nc(C)cc2C)n1 [MLS000109839-01]
AC50: 2.99 µM

Cc1ccc(NC(=O)N2CCC(OC3CCN([S+](C)(=O)[O-])CC3)CC2)cc1F [NCGC00445040-01]
AC50: 15 µM

CNC(=O)CCn1ncc2cc(OCc3ccccc3-c3ccccc3OC)ccc21 [NCGC00418023-01]
AC50: 15.3 µM

CC(=O)Oc1c(-c2ccc(NC(=O)CC(C)C)cc2)c(-c2ccc(F)cc2)nn1-c1ccc(F)cc1 [NCGC00473192-01]
AC50: 13.3 µM

Cc1ccc([S+](=O)([O-])c2nc([S+](=O)([O-])c3ccccc3)sc2NCCCOC(C)C)cc1 [NCGC00116818-01]
AC50: 0.596 µM

O=C(N[C@H](c1ccccn1)[C@H]1C[C@H](O)C1)c1cc(=O)n(-c2ccccc2)[nH]1 [NCGC00423856-01]
AC50: 9.44 µM

CC(C)c1ccccc1OCC(O)CN(CC(O)COc1cccc2ccccc12)C(C)C (stereo not drawn) [MLS001179995-01]
AC50: 2.37 µM

CN(C(=O)CSc1nc2ccc(NC(=O)CCc3ccccc3)cc2s1)c1ccccc1 [NCGC00118644-01]
AC50: 13.3 µM

COc1ccc(CN2C(=O)COC[C@@H]2[C@H](O)c2ccc(NC(=O)c3ccc(C(C)(C)C)cc3)cc2)cc1 [NCGC00392864-01]
AC50: 2.11 µM

CC(C)(C)n1[nH]c2c3c(ccc2c1=O)C(=O)c1ccccc1C3=O [MLS000530323-01]
AC50: 4.73 µM

CC1=C[C@@H](CNC2CC2)[C@H](C(C)C)C[C@H]1Cc1nnc(-c2ccc(C)cc2)o1 [NCGC00394380-01]
AC50: 17.2 µM

Cc1[nH]c2ccc(OC(F)(F)F)cc2c1CCNCc1cccc([N+](=O)[O-])c1 [MLS001198398-01]
AC50: 4.73 µM

CCCOc1ccc(Oc2nc(-c3ccncc3)nc3ccccc23)cc1 [MLS000769540-01]
AC50: 4.22 µM

CC1(c2ccccc2)N(Cc2cccnc2)C(=O)OC12CCN(Cc1ccccc1)CC2 (stereo not drawn) [NCGC00415633-01]
AC50: 17.2 µM

CC(C)C(=O)NC(c1ccc([N+](=O)[O-])cc1)c1c(O)ccc2ccccc12 (stereo not drawn) [MLS000571279-01]
AC50: 13.3 µM

CCC(CC)c1cc([C@H]2CN3CC[C@H]2C[C@@H]3CNC(=O)c2ccccc2)nc(-c2ccncc2)n1 [NCGC00400223-01]
AC50: 10.6 µM

O=C(C[C@@H]1CCNC[C@@H]1Cc1cc(CSc2ccccc2)on1)N1CCN(c2ccccc2)CC1 [NCGC00400854-01]
AC50: 8.41 µM

COc1ccc(NC(=O)c2sc3nc4c(c(-c5ccc(OC)cc5)c3c2N)C(=O)CC(C)(C)C4)cc1 [NCGC00100714-01]
AC50: 1.88 µM

COc1cc2c(C(=O)N3CCN(c4cc(Cl)ccc4C)CC3)cn(CC(C)C)c(=O)c2cc1OC [NCGC00103751-01]
AC50: 15 µM

CCOC(=O)c1ccc(Nc2nc(=O)c(C(C)(C)C)n[nH]2)cc1 [MLS000044326-01]
AC50: 13.3 µM

COc1ccc(Oc2nc(-c3ccccn3)nc3ccccc23)cc1 [MLS000769536-01]
AC50: 2.99 µM

OC(CNC1CCCc2ccccc21)COc1c(Cl)cccc1Cl (stereo not drawn) [MLS000334339-01]
AC50: 1.68 µM

COc1cc(NC(=O)CSc2nc(-c3ccccc3)no2)cc(OC)c1 [NCGC00127876-01]
AC50: 2.37 µM

CN1CCN(C(=O)c2ccc3c(c2)N(Cc2c(F)cccc2Cl)C(=O)c2ccccc2S3)CC1 [NCGC00108178-01]
AC50: 0.0596 µM

COc1cc2c(cc1OC1CCCC1)NC(=O)C21CCN(Cc2nccs2)CC1 [NCGC00416850-01]
AC50: 19.3 µM

COc1ccc(CNC[C@H]2O[C@H](Cc3cc(-c4ccccc4)on3)CC[C@@H]2O)cc1 [NCGC00401044-01]
AC50: 3.85 µM

COc1ccccc1CN1CCn2c(nn(-c3ccc([N+](=O)[O-])cc3)c2=O)C1 [NCGC00479607-01]
AC50: 5.96 µM

C#Cc1ccc(C(=O)Nc2ccc(N3CCC(C)CC3)c(C(N)=O)c2)cc1 [MLS000764680-01]
AC50: 6.68 µM

O=C(NCCN1CCCCC1)c1ccc(-c2nnc3ccc(NC(=O)C4CCC4)cn23)cc1 [NCGC00429914-01]
AC50: 13.3 µM

COc1ccc(N2CCN(c3oc(/C=C/c4cc(OC)c(OC)c(OC)c4)nc3C#N)CC2)cc1 [NCGC00116464-01]
AC50: 2.66 µM

Cc1ncsc1CN1CCCN(Cc2ccncc2)C(c2ccccc2)CC(=O)NCC1 (stereo not drawn) [NCGC00467186-01]
AC50: 8.41 µM

CCOc1ccc2[nH]c3c(NCCN(C)C)ncnc3c2c1 [MLS001214990-01]
AC50: 16.8 µM

O=C(c1ccccc1OCC1CCCN(Cc2ccncc2F)C1)N1CCCCC1 (stereo not drawn) [NCGC00427046-01]
AC50: 10.6 µM

Cc1ccccc1Oc1nc(-c2ccccn2)nc2ccccc12 [MLS000769500-01]
AC50: 6.68 µM

CC(C)CC(NC(=O)C(NC(=O)OC(C)(C)C)C(C)C)C(=O)NC(CCC(=O)OCc1ccccc1)C(N)=O (stereo not drawn) [MLS001304946-01] (Boc-Val-Leu-Glu(OBn)-NH2; configuration not given here)
AC50: 8.41 µM

O=C(Nc1ccc(F)cc1)N1CCOc2ccc(CN3CCc4ccccc4C3)cc2C1 [NCGC00471233-01]
AC50: 8.41 µM

c1ccc(Nc2cc3c(cn2)CN(Cc2ccsc2)CCN3)cc1 [NCGC00411091-01]
AC50: 13.7 µM

CN1CCN(c2ccc(-c3noc([C@@H]4CCCN4C4CCCCC4)n3)cn2)CC1 [NCGC00392835-01]
AC50: 19.3 µM

Fc1ccc(Oc2nc(-c3ccccn3)nc3ccccc23)cc1 [MLS000769507-01]
AC50: 13.3 µM

O=C(Nc1ccc2c(N3CCOCC3)ncnc2c1)c1cccc(Cl)c1 [NCGC00425551-01]
AC50: 4.73 µM

CCn1nnc(NC(=O)c2ccc(C(C)(C)C)cc2)n1 [MLS000035112-01]
AC50: 9.44 µM

CC(=O)N1c2c(cc(Br)cc2[S+](=O)([O-])N2CCN(c3cc(C)ccc3C)CC2)CC1C (stereo not drawn) [NCGC00104358-01]
AC50: 11.9 µM

O=C(NC[C@H]1C[C@@H]2CC[N@]1C[C@@H]2CN1CCC(Cc2ccccc2)CC1)c1ccccc1 [NCGC00421103-01]
AC50: 7.69 µM

CCOc1ccc(NC(=O)c2cnn3c2NC(c2cccc(OC)c2)=CC3c2ccccc2)cc1 (stereo not drawn) [NCGC00121753-01]
AC50: 4.73 µM

Cc1cc(NC(=O)CSc2ccc3nnc(-c4cccc(F)c4)n3n2)no1 [MLS000093339-01]
AC50: 5.96 µM

O=C(c1ccc(OC2CCN(Cc3c[nH]c4ccccc34)CC2)cc1)N1CCCCC1 [NCGC00429064-01]
AC50: 15 µM

COc1ccc(OC)c(CN2CC(Oc3ccccc3C(=O)NCc3ccccc3)C2)c1 [NCGC00458087-01]
AC50: 13.3 µM

COCc1ccc2c(c1)c(OC(C)(C)C(=O)N1CCOCC1)nn2Cc1cccc(OC)c1 [NCGC00419580-01]
AC50: 8.41 µM

O=C1CC2(CCN(Cc3cccs3)CC2)Oc2cc(Cl)ccc21 [NCGC00476854-01]
AC50: 5.31 µM

COc1ccc(-c2cc(C(=O)Nc3cc(OC)cc(C(=O)Nc4cccc(C(F)(F)F)c4)c3)[nH]n2)cc1 [MLS003105955-01]
AC50: 5.31 µM

CCCCN1C(=O)C(O)(CC(=O)c2ccc(C(C)(C)C)cc2)c2ccccc21 (stereo not drawn) [NCGC00100209-01]
AC50: 4.73 µM

COc1ccc(OCCn2cc(C(=O)c3ccco3)c3ccccc32)cc1 [NCGC00101886-01]
AC50: 2.11 µM

c1ccc2c(c1)CNC1(CCN(Cc3cccc4ccccc34)CC1)CO2 [NCGC00477546-01]
AC50: 7.5 µM

CCOC(=O)N1CCc2c(sc3c2c(=O)n(-c2ccccc2C(F)(F)F)c(=O)n3Cc2ccccc2C)C1 [NCGC00111905-01]
AC50: 13.3 µM

O=C(Nc1nc2ccccc2n1Cc1ccccc1)c1ccc(COc2ccccc2[N+](=O)[O-])o1 [MLS000543610-01]
AC50: 16.8 µM

OCC[n+]1ccc(/C=C/c2c[nH]c3ccccc23)cc1 [MLS000585200-01]
AC50: 2.99 µM

Cc1nn(-c2ccc(C(C)(C)C)cc2)c(C)c1[C@@H]1C=C[C@@H](NC(=O)c2ccco2)C1 [NCGC00394638-01]
AC50: 12.2 µM

CN(Cc1ccccc1)C(=O)[C@H]1O[C@H](CCN2CCN(c3ccc(F)cc3)CC2)CC[C@@H]1O [NCGC00401502-01]
AC50: 5.96 µM

COc1ccc(NS(=O)(=O)c2cc(NC(=O)/C=C/c3cc(OC)c(OC)c(OC)c3)ccc2N2CCCCC2)cc1 [MLS000394995-01]
AC50: 6.68 µM

Cn1cccc1CN1CCCC2(C1)C(NC1CCCCC1)=NC(=O)N2c1cccnc1 (stereo not drawn) [NCGC00374042-01]
AC50: 5.31 µM

Cc1ccc2oc(=O)n(CCOc3ccccc3C)c2c1 [MLS000708194-01]
AC50: 4.73 µM

CCC(C)N(CCNC(=O)c1ccc2c(c1)NC(=O)c1ccccc1S2)C1CCCCC1 (stereo not drawn) [MLS001110969-01]
AC50: 13.3 µM

Cc1cccc(Cn2nnc3c(O)nc(C4CCCN(C(=O)c5ccc(C(C)(C)C)cc5)C4)nc32)c1 (stereo not drawn) [NCGC00116091-01]
AC50: 2.66 µM

COc1cccc(/C(C#N)=C/c2c(-c3ccc(Cl)cc3)nc3c(C)cccn23)c1 [MLS000326878-01]
AC50: 5.96 µM

O=C(Nc1ccc(C(=O)OC[C@@H]2CCCN3CCCC[C@H]23)cc1)c1cccc(Br)c1 [MLS000700112-01]
AC50: 6.68 µM

Oc1ccc(-c2ccccc2)cc1CN1CCCCCC1 [MLS001195126-01]
AC50: 0.266 µM

COc1ccc(CN2CCCCCNC(=O)CC2c2ccccc2)cc1Cn1ccnc1 (stereo not drawn) [NCGC00465444-01]
AC50: 9.44 µM

COc1ccc(-c2ccccc2NC(=O)C2CCCN(Cc3c(O)cccc3OC)C2)cc1 (stereo not drawn) [NCGC00425458-01]
AC50: 2.11 µM
